US10251395B2, “Substituted furano-/thienocycloalkylamino-2-pyrimidine derivatives and use thereof for controlling undesired plant growth” (Bayer CropScience Aktiengesellschaft, priority 2015, dated 2019)

Columns and labels:
Matricaria inodora = assay: Pre-emergence herbicidal effect; type: in vivo; details: scored visually after 3 weeks
Procedure, shortened: (§1)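 Herbicidal activity (%) is a visual rating made 3 weeks after treatment by comparison with untreated controls, where 0% equals control plants and 100% means the plants died. Application went onto the soil covering sown seeds before emergence.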

Stellaria media [1] = assay: Pre-emergence herbicidal effect; type: in vivo; details: scored visually after 3 weeks
Procedure, shortened: as §1

Echinochloa crus-galli [2] = assay: Pre-emergence herbicidal effect; type: in vivo; details: scored visually after 3 weeks
Procedure, shortened: as §1

Polygonum convolvulus [3] = assay: Pre-emergence herbicidal effect; type: in vivo; details: scored visually after 3 weeks
Procedure, shortened: as §1

Lolium multiflorum [4] = assay: Pre-emergence herbicidal effect; type: in vivo; details: Dosage 320 g/ha, scored visually after 3 weeks
Procedure, shortened: as §1

Alopecurus myosuroides [5] = assay: Pre-emergence herbicidal effect; type: in vivo; details: scored visually after 3 weeks
Procedure, shortened: as §1

Veronica persica [6] = assay: Pre-emergence herbicidal effect; type: in vivo; details: scored visually after 3 weeks
Procedure, shortened: as §1

Setaria viridis [7] = assay: Pre-emergence herbicidal effect; type: in vivo; details: scored visually after 3 weeks
Procedure, shortened: as §1

Abutilon theophrasti [8] = assay: Pre-emergence herbicidal effect; type: in vivo; details: scored visually after 3 weeks
Procedure, shortened: as §1

Amaranthus retroflexus [9] = assay: Pre-emergence herbicidal effect; type: in vivo; details: scored visually after 3 weeks
Procedure, shortened: as §1

Stellaria media [10] = assay: Post-emergence herbicidal effect; type: in vivo; details: assessed visually after about 3 weeks vs untreated controls
Procedure, shortened: (§2)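 Visual % damage vs untreated plants, ~3 wk after spraying (100% = dead, 0% = as control). Post-emergence foliar spray at one-leaf stage; WP/EC in water, 600–800 L/ha + 0.2% wetting agent; sandy loam, greenhouse.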

Echinochloa crus-galli [11] = assay: Post-emergence herbicidal effect; type: in vivo; details: assessed visually after about 3 weeks vs untreated controls
Procedure, shortened: as §2

Polygonum convolvulus [12] = assay: Post-emergence herbicidal effect; type: in vivo; details: assessed visually after about 3 weeks vs untreated controls
Procedure, shortened: as §2

Alopecurus myosuroides [13] = assay: Post-emergence herbicidal effect; type: in vivo; details: assessed visually after about 3 weeks vs untreated controls
Procedure, shortened: as §2

Veronica persica [14] = assay: Post-emergence herbicidal effect; type: in vivo; details: assessed visually after about 3 weeks vs untreated controls
Procedure, shortened: as §2

Setaria viridis [15] = assay: Post-emergence herbicidal effect; type: in vivo; details: assessed visually after about 3 weeks vs untreated controls
Procedure, shortened: as §2

Viola tricolor [16] = assay: Post-emergence herbicidal effect; type: in vivo; details: assessed visually after about 3 weeks vs untreated controls
Procedure, shortened: as §2

Abutilon theophrasti [17] = assay: Post-emergence herbicidal effect; type: in vivo; details: assessed visually after about 3 weeks vs untreated controls
Procedure, shortened: as §2

Amaranthus retroflexus [18] = assay: Post-emergence herbicidal effect; type: in vivo; details: assessed visually after about 3 weeks vs untreated controls
Procedure, shortened: as §2

Ipomoea purpurea = assay: Post-emergence herbicidal effect; type: in vivo; details: assessed visually after about 3 weeks vs untreated controls
Procedure, shortened: as §2

Avena fatua = assay: Pre-emergence herbicidal effect; type: in vivo; details: Dosage 320 g/ha, scored visually after 3 weeks
Procedure, shortened: as §1

Viola tricolor [19] = assay: Pre-emergence herbicidal effect; type: in vivo; details: scored visually after 3 weeks
Procedure, shortened: as §1

Lolium multiflorum [20] = assay: Post-emergence herbicidal effect; type: in vivo; details: assessed visually after about 3 weeks vs untreated controls
Procedure, shortened: as §2

logP (HCOOH) = type: physicochemical; details: HCOOH
Description: Table 2 (physicochemical characterization of selected synthesis examples)

Cyperus esculentus = assay: Pre-emergence herbicidal effect; type: in vivo; details: Dosage 320 g/ha, scored visually after 3 weeks
Procedure, shortened: as §1

SMILES: Cc1cc2c(s1)CCC[C@H]2Nc1ncc2c(n1)CCCS2(=O)=O [compound 44]
- MATIN pre-emergence efficacy (herbicidal activity) (Matricaria inodora; Dosage 80 g/ha): 100%
- MATIN pre-emergence efficacy (herbicidal activity) (Matricaria inodora; Dosage 320 g/ha): 100%
- STEME pre-emergence efficacy (herbicidal activity) (Stellaria media [1]; Dosage 80 g/ha): 100%
- STEME pre-emergence efficacy (herbicidal activity) (Stellaria media [1]; Dosage 320 g/ha): 100%
- ECHCG pre-emergence efficacy (herbicidal activity) (Echinochloa crus-galli [2]; Dosage 80 g/ha): 100%
- ECHCG pre-emergence efficacy (herbicidal activity) (Echinochloa crus-galli [2]; Dosage 320 g/ha): 100%
- POLCO pre-emergence efficacy (herbicidal activity) (Polygonum convolvulus [3]; Dosage 80 g/ha): 100%
- POLCO pre-emergence efficacy (herbicidal activity) (Polygonum convolvulus [3]; Dosage 320 g/ha): 100%
- LOLMU pre-emergence efficacy (herbicidal activity) (Lolium multiflorum [4]): 100%
- ALOMY pre-emergence efficacy (herbicidal activity) (Alopecurus myosuroides [5]; Dosage 80 g/ha): 80%
- ALOMY pre-emergence efficacy (herbicidal activity) (Alopecurus myosuroides [5]; Dosage 320 g/ha): 100%
- VERPE pre-emergence efficacy (herbicidal activity) (Veronica persica [6]; Dosage 80 g/ha): 100%
- VERPE pre-emergence efficacy (herbicidal activity) (Veronica persica [6]; Dosage 320 g/ha): 100%
- SETVI pre-emergence efficacy (herbicidal activity) (Setaria viridis [7]; Dosage 80 g/ha): 100%
- SETVI pre-emergence efficacy (herbicidal activity) (Setaria viridis [7]; Dosage 320 g/ha): 100%
- ABUTH pre-emergence efficacy (herbicidal activity) (Abutilon theophrasti [8]; Dosage 320 g/ha): 100%
- AMARE pre-emergence efficacy (herbicidal activity) (Amaranthus retroflexus [9]; Dosage 80 g/ha): 100%
- AMARE pre-emergence efficacy (herbicidal activity) (Amaranthus retroflexus [9]; Dosage 320 g/ha): 100%
- post-emergence efficacy STEME (Stellaria media [10]; 320 g/ha): 100%
- post-emergence efficacy ECHCG (Echinochloa crus-galli [11]; 320 g/ha): 100%
- post-emergence efficacy POLCO (Polygonum convolvulus [12]; 320 g/ha): 80%
- post-emergence efficacy ALOMY (Alopecurus myosuroides [13]; 320 g/ha): 90%
- post-emergence efficacy VERPE (Veronica persica [14]; 320 g/ha): 100%
- post-emergence efficacy SETVI (Setaria viridis [15]; 320 g/ha): 100%
- post-emergence efficacy VIOTR (Viola tricolor [16]; 320 g/ha): 80%
- post-emergence efficacy ABUTH (Abutilon theophrasti [17]; 320 g/ha): 90%
- post-emergence efficacy AMARE (Amaranthus retroflexus [18]; 320 g/ha): 100%
- post-emergence efficacy PHBPU (Ipomoea purpurea; 320 g/ha): 100%

SMILES: Cc1cc2c(s1)C(Nc1ncc(C(F)(F)F)c(N)n1)CCC2 (racemic) [compound 55]
- MATIN pre-emergence efficacy (herbicidal activity) (Matricaria inodora; Dosage 80 g/ha): 100%
- MATIN pre-emergence efficacy (herbicidal activity) (Matricaria inodora; Dosage 320 g/ha): 100%
- STEME pre-emergence efficacy (herbicidal activity) (Stellaria media [1]; Dosage 80 g/ha): 100%
- STEME pre-emergence efficacy (herbicidal activity) (Stellaria media [1]; Dosage 320 g/ha): 100%
- ECHCG pre-emergence efficacy (herbicidal activity) (Echinochloa crus-galli [2]; Dosage 80 g/ha): 100%
- ECHCG pre-emergence efficacy (herbicidal activity) (Echinochloa crus-galli [2]; Dosage 320 g/ha): 100%
- POLCO pre-emergence efficacy (herbicidal activity) (Polygonum convolvulus [3]; Dosage 320 g/ha): 90%
- LOLMU pre-emergence efficacy (herbicidal activity) (Lolium multiflorum [4]): 100%
- ALOMY pre-emergence efficacy (herbicidal activity) (Alopecurus myosuroides [5]; Dosage 80 g/ha): 90%
- ALOMY pre-emergence efficacy (herbicidal activity) (Alopecurus myosuroides [5]; Dosage 320 g/ha): 100%
- AVEFA pre-emergence efficacy (herbicidal activity) (Avena fatua): 100%
- VERPE pre-emergence efficacy (herbicidal activity) (Veronica persica [6]; Dosage 80 g/ha): 100%
- VERPE pre-emergence efficacy (herbicidal activity) (Veronica persica [6]; Dosage 320 g/ha): 100%
- SETVI pre-emergence efficacy (herbicidal activity) (Setaria viridis [7]; Dosage 80 g/ha): 100%
- SETVI pre-emergence efficacy (herbicidal activity) (Setaria viridis [7]; Dosage 320 g/ha): 100%
- VIOTR pre-emergence efficacy (herbicidal activity) (Viola tricolor [19]; Dosage 80 g/ha): 100%
- VIOTR pre-emergence efficacy (herbicidal activity) (Viola tricolor [19]; Dosage 320 g/ha): 100%
- ABUTH pre-emergence efficacy (herbicidal activity) (Abutilon theophrasti [8]; Dosage 80 g/ha): 100%
- ABUTH pre-emergence efficacy (herbicidal activity) (Abutilon theophrasti [8]; Dosage 320 g/ha): 100%
- AMARE pre-emergence efficacy (herbicidal activity) (Amaranthus retroflexus [9]; Dosage 80 g/ha): 100%
- AMARE pre-emergence efficacy (herbicidal activity) (Amaranthus retroflexus [9]; Dosage 320 g/ha): 100%
- post-emergence efficacy STEME (Stellaria media [10]; 80 g/ha): 100%
- post-emergence efficacy STEME (Stellaria media [10]; 320 g/ha): 100%
- post-emergence efficacy ECHCG (Echinochloa crus-galli [11]; 80 g/ha): 100%
- post-emergence efficacy ECHCG (Echinochloa crus-galli [11]; 320 g/ha): 100%
- post-emergence efficacy POLCO (Polygonum convolvulus [12]; 80 g/ha): 90%
- post-emergence efficacy POLCO (Polygonum convolvulus [12]; 320 g/ha): 90%
- post-emergence efficacy LOLMU (Lolium multiflorum [20]; 80 g/ha): 80%
- post-emergence efficacy LOLMU (Lolium multiflorum [20]; 320 g/ha): 90%
- post-emergence efficacy ALOMY (Alopecurus myosuroides [13]; 80 g/ha): 90%
- post-emergence efficacy ALOMY (Alopecurus myosuroides [13]; 320 g/ha): 90%
- post-emergence efficacy VERPE (Veronica persica [14]; 80 g/ha): 90%
- post-emergence efficacy VERPE (Veronica persica [14]; 320 g/ha): 100%
- post-emergence efficacy SETVI (Setaria viridis [15]; 80 g/ha): 90%
- post-emergence efficacy SETVI (Setaria viridis [15]; 320 g/ha): 90%
- post-emergence efficacy VIOTR (Viola tricolor [16]; 80 g/ha): 90%
- post-emergence efficacy VIOTR (Viola tricolor [16]; 320 g/ha): 100%
- post-emergence efficacy ABUTH (Abutilon theophrasti [17]; 80 g/ha): 90%
- post-emergence efficacy ABUTH (Abutilon theophrasti [17]; 320 g/ha): 90%
- post-emergence efficacy AMARE (Amaranthus retroflexus [18]; 80 g/ha): 90%
- post-emergence efficacy AMARE (Amaranthus retroflexus [18]; 320 g/ha): 100%
- post-emergence efficacy PHBPU (Ipomoea purpurea; 80 g/ha): 100%
- post-emergence efficacy PHBPU (Ipomoea purpurea; 320 g/ha): 100%
- logP (HCOOH) (logP (HCOOH)): oily; logP (HCOOH): 2.46; 1H NMR (CDCl3, 400 MHZ, δ in ppm): 1.85-2.00 (m, 3H,

SMILES: Cc1cc2c(s1)CCCC2Nc1nc(N)c(Br)c(C(C)(C)F)n1 (racemic) [compound 307]
- MATIN pre-emergence efficacy (herbicidal activity) (Matricaria inodora; Dosage 320 g/ha): 50%
- POLCO pre-emergence efficacy (herbicidal activity) (Polygonum convolvulus [3]; Dosage 320 g/ha): 70%
- CYPES pre-emergence efficacy (herbicidal activity) (Cyperus esculentus): 60%
- VIOTR pre-emergence efficacy (herbicidal activity) (Viola tricolor [19]; Dosage 320 g/ha): 100%
